The text below walks through data of ChEMBL document CHEMBL1201862, “PubChem BioAssay data set” (2004).

Each structure is given as a SMILES string.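 Following 48 hours of exposure in 96-well plates, responses at five concentrations were used to interpolate endpoints linearly. GI50: concentration for 50% inhibition of growth.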 Activity calls are given as the source filed them. No stated cut-off is given here; in the data, active = GI50 up to about 1.1 µM and inactive = higher.

Assay in all cases: inhibition of tumour cell growth, NCI panel, 48 h
Experiment [1] concerns A498.
The subject of experiment [2] is BT-549.
Experiment [3] has as its system CAKI-1.
The test system of experiment [4] is EKVX.
Experiment [5] concerns HCT-15.
Experiment [6] deals with HOP-92.
For experiment [7], the system named is Hs-578T.
Experiment [8] has as its system K562.
For experiment [9], the system named is M14.
Experiment [10] has as its system MDA-MB-231.
Experiment [11] deals with NCI-H23.
In experiment [12] the test system is OVCAR-3.
Experiment [13] deals with PC-3.
Experiment [14] relates to RPMI-8226.
Experiment [15] deals with RXF 393.
The subject of experiment [16] is SF-539.
In experiment [17] the test system is SK-MEL-2.
Experiment [18] has as its system T47D.
Experiment [19] has as its system UO-31.
Experiment [20] relates to NCI-H460.

As for `CCOC(=O)N1N(c2ccccc2)C(=O)C1(c1ccccc1)c1ccccc1`, the GI50 is > 100 µM (inactive) in experiment [1]; > 100 µM (inactive) in experiment [2]; > 100 µM (inactive) in experiment [3]; 48.1 µM (inactive) in experiment [4]; over 100 µM in experiment [5]; 70.3 µM (inactive) in [6]. Moreover, the GI50 in [7] was > 100 µM (inactive); in [8], 34.8 µM (inactive); in experiment [9], > 100 µM (inactive); in experiment [10], > 100 µM (inactive); in [11], > 100 µM (inactive); in [12], 40.5 µM (inactive). The GI50 in [13] is 19.2 µM (inactive); in experiment [14] it was 14.7 µM (inactive); in [15] it was 28.8 µM (inactive); in experiment [16] it was > 100 µM (inactive); in experiment [17] it was 20.4 µM (inactive); in [18], 18.9 µM (inactive). The GI50 in [19] was 51.6 µM (inactive).
Take `Cc1ccc(C(=O)/C=C2\Nc3cccnc3NC2=O)cc1`: the GI50 in [1] was > 100 µM (inactive); in [2], > 100 µM (inactive); in [3], > 100 µM (inactive); in experiment [4], > 100 µM (inactive); in [5], over 100 µM; in experiment [6] it was > 100 µM (inactive). Moreover, the GI50 in [7] was 37.8 µM (inactive); in experiment [8] it was > 100 µM (inactive); in experiment [9], > 100 µM (inactive); in experiment [10], 30.8 µM (inactive); in experiment [11] it was > 100 µM (inactive); in experiment [20] it was > 100 µM (inactive). Moreover, the GI50 was > 100 µM (inactive) in experiment [12]; > 100 µM (inactive) in experiment [13]; > 100 µM (inactive) in experiment [14]; 21.7 µM (inactive) in experiment [15]; 60.4 µM (inactive) in experiment [16]; > 100 µM (inactive) in experiment [17]. Further, the GI50 in experiment [18] and in [19] was > 100 µM (inactive) each time.
Consider `COC(=O)C(Cc1ccccc1)NC(=O)CNC(=O)CSc1nnc(COc2ccc(Cl)cc2)n1-c1ccccc1` (configuration not stated), for which the GI50 was 15.5 µM (inactive) in [1]; 18.7 µM (inactive) in [2]; 12.7 µM (inactive) in experiment [3]; 20.4 µM (inactive) in experiment [4]; 18.1 µM in [5]; 17.4 µM (inactive) in experiment [6]. Besides, the GI50 is 26.5 µM (inactive) in [7]; 25.3 µM (inactive) in experiment [8]; 17.7 µM (inactive) in [9]; 17 µM (inactive) in [10]; 18.7 µM (inactive) in [11]; 16.3 µM (inactive) in experiment [20]. The GI50 in experiment [12] was 16.7 µM (inactive); in experiment [13], 17.1 µM (inactive); in [14], 4.74 µM (inactive); in [15] it was 16.7 µM (inactive); in experiment [16] it was 17.6 µM (inactive); in [17] it was 17 µM (inactive). The GI50 in experiment [18] was 12.5 µM (inactive); in [19] it was 1.69 µM (inactive).
For the compound `CN(C)CCNC(=O)c1ccc(Cl)c2cc3ccccc3nc12`, the GI50 in [1] was 0.143 µM (active); in experiment [2] it was 2.35 µM (inactive); in experiment [3], 0.448 µM (active); in experiment [4], 1.7 µM (inactive); in experiment [5] it was 0.54 µM; in experiment [6] it was 0.187 µM (active). Moreover, the GI50 was 0.759 µM (active) in experiment [7]; 0.553 µM (active) in experiment [8]; 1.23 µM (inactive) in [9]; 1.05 µM (active) in [10]; 0.632 µM (active) in [11]; 0.218 µM (active) in experiment [20]. In addition, the GI50 in experiment [12] was 1.22 µM (inactive); in experiment [13] it was 0.807 µM (active); in [14], 0.463 µM (active); in experiment [15], 1.07 µM (active); in experiment [16], 0.946 µM (active); in experiment [17], 2.01 µM (inactive). Further, the GI50 in [18] is 3.01 µM (inactive); in experiment [19] it was 0.404 µM (active).
Turning to `CCCN(C(=O)c1c(Cl)nnc(Cl)c1C(=O)c1cc(Cl)nnc1Cl)c1cc(Cl)nnc1Cl`, the GI50 in experiment [1] is 15.5 µM (inactive); in experiment [2], 9.73 µM (inactive); in [3], 7.23 µM (inactive); in experiment [4], 12.7 µM (inactive); in [5] it was 4.65 µM; in experiment [6], 18.4 µM (inactive). For the same compound, the GI50 in [7] was 3.24 µM (inactive); in experiment [8] it was 4.19 µM (inactive); in experiment [9], 16.1 µM (inactive); in experiment [10], 15.7 µM (inactive); in [11], 5.77 µM (inactive); in [20] it was 20.9 µM (inactive). The GI50 was 10.9 µM (inactive) in experiment [12]; 6.61 µM (inactive) in experiment [13]; 3.65 µM (inactive) in experiment [14]; 2.86 µM (inactive) in [15]; 7.28 µM (inactive) in experiment [16]; 14.4 µM (inactive) in experiment [17]. The figures for the GI50 in experiment [18] and in experiment [19] were 4.55 µM (inactive) and 17 µM (inactive), respectively.
`CCCCCCCCCCCCCC(=O)OC(/C=C/C(C)C)C(O)C(O)C(OC)C(=O)NC1CCCCN(C)C1=O` (configuration not stated): the GI50 in experiment [1] was 4.67 µM (inactive); in experiment [2] it was > 10 µM (inactive); in [3], 1.19 µM (inactive); in experiment [4] it was 9.06 µM (inactive); in experiment [5], 6 µM; in experiment [6], 4 µM (inactive). Moreover, the GI50 was > 10 µM (inactive) in experiment [7]; 2.59 µM (inactive) in experiment [8]; 1.56 µM (inactive) in experiment [9]; 1.86 µM (inactive) in experiment [10]; 9.91 µM (inactive) in [11]; 0.687 µM (active) in [20]. Also, the GI50 was 5.12 µM (inactive) in experiment [12]; 7.48 µM (inactive) in [13]; 2.07 µM (inactive) in experiment [14]; 1.45 µM (inactive) in experiment [15]; 3.62 µM (inactive) in experiment [16]; 4.2 µM (inactive) in [17]. Also, the GI50 was > 10 µM (inactive) in [18] and 1.34 µM (inactive) in [19].
Turning to `CCOC(=O)C(=O)CC(=O)C1=C(c2ccccc2OC)CC(c2cccs2)=CC1=O`, the GI50 was > 100 µM (inactive) in [1]; > 100 µM (inactive) in [2]; 57.1 µM (inactive) in [3]; > 100 µM (inactive) in experiment [4]; 82.4 µM in experiment [5]; 71.1 µM (inactive) in [6]. Besides, the GI50 in experiment [7] was 2.75 µM (inactive); in experiment [8], 23.4 µM (inactive); in experiment [9], 26.1 µM (inactive); in experiment [10], 93.3 µM (inactive); in [11], > 100 µM (inactive); in experiment [20] it was 48.5 µM (inactive). For the same compound, the GI50 in [12] was 41.9 µM (inactive); in experiment [13], 24 µM (inactive); in experiment [14], 65.8 µM (inactive); in experiment [15], 86.9 µM (inactive); in experiment [16], 67.1 µM (inactive); in [17], 78.9 µM (inactive). Besides, the GI50 in [18] was 90.6 µM (inactive); in experiment [19], > 100 µM (inactive).
For the compound `CCN(CC)CCC(=O)N1C/C(=C/c2ccccc2)C(=O)/C(=C\c2ccccc2)C1`, the GI50 is 3.96 µM (inactive) in experiment [1]; 0.363 µM (active) in experiment [2]; 2.3 µM (inactive) in [3]; 3.42 µM (inactive) in [4]; 1.24 µM in experiment [5]; 4.52 µM (inactive) in [6]. For the same compound, the GI50 in experiment [7] is < 0.01 µM (active); in experiment [8], 0.141 µM (active); in experiment [9] it was 1.52 µM (inactive); in experiment [10] it was 0.845 µM (active); in [11] it was 1.42 µM (inactive); in experiment [20] it was 3.24 µM (inactive). The GI50 in [12] was 3.06 µM (inactive); in experiment [13] it was 1.06 µM (active); in experiment [14], 0.114 µM (active); in experiment [15], 1.51 µM (inactive); in experiment [16], 3.83 µM (inactive); in experiment [17], 2.19 µM (inactive). Also, the figures for the GI50 in [18] and in experiment [19] were 1.19 µM (inactive) and 1.71 µM (inactive), respectively.
As to `CNC(=O)c1ccccc1[S+]1c2cccc3cccc(c23)C(=O)N1C` (configuration not stated), the GI50 in experiment [1] was > 100 µM (inactive); in experiment [2], > 100 µM (inactive); in [3], > 100 µM (inactive); in [4], > 100 µM (inactive); in [5], over 100 µM; in experiment [6] it was > 100 µM (inactive). Further, the GI50 in experiment [7], in [8], in experiment [9], in experiment [10], in experiment [11] and in experiment [12] was > 100 µM (inactive) in each case. Moreover, the GI50 in experiment [13], in experiment [14], in experiment [15], in experiment [16], in experiment [17] and in [18] was > 100 µM (inactive) in each case. For the same compound, the GI50 in [19] is > 100 µM (inactive).
For the compound `COc1cc(NCc2ccc3nc(N)nc(N)c3c2C)cc(OC)c1OC`, the GI50 in [1] is 2.39 µM (inactive); in [2], 0.685 µM (active); in experiment [3], 0.194 µM (active); in experiment [5] it was 0.025 µM; in [6] it was 0.75 µM (active); in [7] it was 0.0993 µM (active). Also, the GI50 in experiment [8] was 0.038 µM (active); in experiment [9], 0.00024 µM (active); in experiment [10] it was 4.03 µM (inactive); in experiment [11] it was 0.0453 µM (active); in [20], 0.025 µM (active); in experiment [12] it was 0.288 µM (active). For the same compound, the GI50 in experiment [13] is 0.000383 µM (active); in [14], 0.0562 µM (active); in [15], 2.15 µM (inactive); in experiment [16] it was 0.0269 µM (active); in experiment [17], 17.9 µM (inactive); in experiment [18] it was 0.0658 µM (active). The GI50 in [19] was 1.05 µM (active).
